Data as given in ChEMBL document CHEMBL1201862, “PubChem BioAssay data set” (2004).
Active and inactive are the calls of the source.

Key:
[1] = viability loss in human Jurkat cells – cell-based, luminescence, cytotoxicity control for P. falciparum gametocyte viability project, dose response (AID 1117277); assay type: functional;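 also: potency reflects loss of cellular ATP meaning fewer viable cells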
[2] = viability inhibitors of stage V gametocytes – luminescence, dose response (AID 1117278); assay type: functional, cell-based;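 also: gametocytes exposed to compound for 24 hours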
[3] = target: Voltage-dependent T-type calcium channel subunit alpha-1H (Homo sapiens, UniProt O95180); assay type: functional;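 also: channel activity triggered by adding a high calcium stimulation buffer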
Sequence of Voltage-dependent T-type calcium channel subunit alpha-1H (O95180 whole entry): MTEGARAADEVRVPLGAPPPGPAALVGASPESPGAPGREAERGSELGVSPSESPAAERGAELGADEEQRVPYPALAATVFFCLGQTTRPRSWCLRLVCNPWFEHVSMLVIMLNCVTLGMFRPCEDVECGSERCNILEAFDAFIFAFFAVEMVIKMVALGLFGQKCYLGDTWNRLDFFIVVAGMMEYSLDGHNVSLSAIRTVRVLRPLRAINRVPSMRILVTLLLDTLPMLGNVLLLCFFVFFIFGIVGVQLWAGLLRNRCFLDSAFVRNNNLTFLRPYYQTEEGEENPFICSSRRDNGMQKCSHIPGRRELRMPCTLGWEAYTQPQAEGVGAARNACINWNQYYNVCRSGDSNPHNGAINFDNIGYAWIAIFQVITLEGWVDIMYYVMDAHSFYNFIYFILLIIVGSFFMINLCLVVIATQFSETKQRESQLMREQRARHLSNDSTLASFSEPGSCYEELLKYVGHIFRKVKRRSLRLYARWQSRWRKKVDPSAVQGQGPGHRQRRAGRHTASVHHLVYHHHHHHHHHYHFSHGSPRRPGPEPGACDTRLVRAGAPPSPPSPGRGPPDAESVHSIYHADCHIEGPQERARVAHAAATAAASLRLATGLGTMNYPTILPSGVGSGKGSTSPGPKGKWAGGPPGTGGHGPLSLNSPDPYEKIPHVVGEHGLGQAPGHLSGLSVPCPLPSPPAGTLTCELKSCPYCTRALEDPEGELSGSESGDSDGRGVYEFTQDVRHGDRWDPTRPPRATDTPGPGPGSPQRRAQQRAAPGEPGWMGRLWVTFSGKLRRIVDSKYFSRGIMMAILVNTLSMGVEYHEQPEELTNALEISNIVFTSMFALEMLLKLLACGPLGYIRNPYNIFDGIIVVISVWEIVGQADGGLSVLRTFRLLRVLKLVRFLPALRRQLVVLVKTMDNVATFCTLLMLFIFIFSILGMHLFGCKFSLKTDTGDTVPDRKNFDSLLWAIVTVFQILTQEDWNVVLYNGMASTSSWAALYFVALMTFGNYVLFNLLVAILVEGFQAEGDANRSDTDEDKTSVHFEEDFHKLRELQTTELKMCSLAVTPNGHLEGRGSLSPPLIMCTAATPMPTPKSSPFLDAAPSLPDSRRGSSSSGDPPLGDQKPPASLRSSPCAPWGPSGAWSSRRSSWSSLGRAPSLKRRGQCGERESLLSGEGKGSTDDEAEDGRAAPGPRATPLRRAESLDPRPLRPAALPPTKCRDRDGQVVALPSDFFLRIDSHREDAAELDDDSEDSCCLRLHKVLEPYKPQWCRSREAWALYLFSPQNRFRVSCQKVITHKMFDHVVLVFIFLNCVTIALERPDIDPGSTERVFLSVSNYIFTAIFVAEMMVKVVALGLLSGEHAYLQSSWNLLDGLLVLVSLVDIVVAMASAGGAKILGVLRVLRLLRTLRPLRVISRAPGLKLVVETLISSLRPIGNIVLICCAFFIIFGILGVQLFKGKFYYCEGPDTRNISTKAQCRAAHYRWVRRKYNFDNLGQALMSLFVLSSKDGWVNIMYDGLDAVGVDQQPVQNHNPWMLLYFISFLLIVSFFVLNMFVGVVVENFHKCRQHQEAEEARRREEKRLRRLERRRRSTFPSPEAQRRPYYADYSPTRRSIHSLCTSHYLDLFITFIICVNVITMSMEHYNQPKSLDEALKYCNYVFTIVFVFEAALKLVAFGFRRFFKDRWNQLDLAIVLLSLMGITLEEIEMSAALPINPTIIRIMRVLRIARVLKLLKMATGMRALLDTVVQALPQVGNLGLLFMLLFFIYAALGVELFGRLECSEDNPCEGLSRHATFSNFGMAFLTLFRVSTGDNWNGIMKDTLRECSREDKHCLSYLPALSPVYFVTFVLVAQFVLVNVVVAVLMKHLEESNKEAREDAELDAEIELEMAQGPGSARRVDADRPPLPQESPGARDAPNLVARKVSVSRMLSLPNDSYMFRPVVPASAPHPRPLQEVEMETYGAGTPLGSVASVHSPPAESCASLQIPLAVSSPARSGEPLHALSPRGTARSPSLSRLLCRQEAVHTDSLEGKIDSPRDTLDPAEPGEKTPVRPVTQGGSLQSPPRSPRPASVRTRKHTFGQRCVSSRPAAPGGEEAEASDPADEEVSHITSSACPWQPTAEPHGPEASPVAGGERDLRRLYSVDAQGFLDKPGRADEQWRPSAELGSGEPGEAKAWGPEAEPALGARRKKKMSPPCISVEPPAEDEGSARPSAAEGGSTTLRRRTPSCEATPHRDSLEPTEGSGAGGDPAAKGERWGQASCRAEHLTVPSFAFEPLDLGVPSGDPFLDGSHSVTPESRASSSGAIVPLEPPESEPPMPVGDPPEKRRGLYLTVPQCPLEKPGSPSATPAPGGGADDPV

[4] = Luminescence Cell-Based Dose Response to Identify Activators of Luciferase Translation or Activity in H4-C Neuroglioblastoma Cells. [Related pubchem assays: 1829 (Project Summary), 1814 (Primary HTS)]; assay type: functional
[5] = Luminescence Cell-Based Dose Response HTS to Identify Activators of Luciferase Translation or Activity in H4 […] Cells. [Related pubchem assays: 1829 (Project Summary), 1814 (Primary HTS)]; assay type: functional
H4 = experiment: Luminescence Cell-Based Dose Response HTS to Identify Activators of 5'UTR Stem-Loop Driven Prion Protein mRNA Translation in H4 Neuroglioblastoma Cells. [Related pubchem assays: 1829 (Project Summary), 1814 (Primary HTS)]; assay type: functional; conditions: Homo sapiens
[6] = target: T1, Polyadenylate-binding protein 1 (Homo sapiens, UniProt P11940); experiment: MLLE binding blockers, Cy5 peptide tracer – biochemical, fluorescence polarization, Cy5-PAM2 peptide, secondary, miRNA deadenylation inhibitor project, dose response (AID 602260); assay type: functional; conditions: read-out: IC50_Mean
T1 sequence (P11940 whole entry): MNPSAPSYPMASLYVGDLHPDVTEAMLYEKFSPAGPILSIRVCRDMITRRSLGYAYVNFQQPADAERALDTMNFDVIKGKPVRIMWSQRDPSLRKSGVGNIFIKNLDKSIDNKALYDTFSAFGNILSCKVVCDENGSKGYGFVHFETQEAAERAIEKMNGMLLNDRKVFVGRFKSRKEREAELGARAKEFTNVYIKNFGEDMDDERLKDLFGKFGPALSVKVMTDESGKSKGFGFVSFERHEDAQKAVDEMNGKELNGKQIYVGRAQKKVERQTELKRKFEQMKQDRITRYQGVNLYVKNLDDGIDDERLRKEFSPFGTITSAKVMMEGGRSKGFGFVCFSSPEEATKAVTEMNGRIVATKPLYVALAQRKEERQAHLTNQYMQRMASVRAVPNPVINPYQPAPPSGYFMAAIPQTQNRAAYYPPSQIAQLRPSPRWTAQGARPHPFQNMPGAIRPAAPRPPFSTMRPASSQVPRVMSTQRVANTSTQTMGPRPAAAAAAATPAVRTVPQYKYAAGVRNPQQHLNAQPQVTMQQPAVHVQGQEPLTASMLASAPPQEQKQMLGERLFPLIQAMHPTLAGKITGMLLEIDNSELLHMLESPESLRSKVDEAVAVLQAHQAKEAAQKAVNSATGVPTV

[7] = Luminescence Cell-Based Dose Confirmation to Identify Activators of 5'UTR Stem-Loop Driven Alpha-Synuclein mRNA Translation in H4 Neuroglioblastoma Cells. [Related pubchem assays: 1829 (Project Summary), 1814 (Primary HTS)]; assay type: functional
[8] = target: T1, Polyadenylate-binding protein 1; experiment: MLLE domain peptide-binding blockers, IC50 – biochemical, fluorescence polarization, FITC-PAM2 peptide, dose response (AID 602259); assay type: functional; conditions: read-out: IC50_Mean
[9] = Luminescence Cell-Based Dose Response to Identify Activators of 5'UTR Stem-Loop Driven Prion Protein mRNA Translation in H4-C Neuroglioblastoma Cells. [Related pubchem assays: 1829 (Project Summary), 1814 (Primary HTS)]; assay type: functional
cells [10] = experiment: cells
[11] = target: Oxysterols receptor LXR-beta (Homo sapiens, UniProt P55055); assay type: functional, cell-based;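 also: Cell-based luminescence dose-response assay of agonist activity at LXR, run as a confirmatory counterscreen to a daf-12 agonist screen; HEK293 cells with Gal4-LXR fusion and GAL4-driven luciferase reporter; agonist potency from rising luciferase signal of a Gal4-LXR reporter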
Sequence of Oxysterols receptor LXR-beta (P55055 whole entry, the tested form may be a part): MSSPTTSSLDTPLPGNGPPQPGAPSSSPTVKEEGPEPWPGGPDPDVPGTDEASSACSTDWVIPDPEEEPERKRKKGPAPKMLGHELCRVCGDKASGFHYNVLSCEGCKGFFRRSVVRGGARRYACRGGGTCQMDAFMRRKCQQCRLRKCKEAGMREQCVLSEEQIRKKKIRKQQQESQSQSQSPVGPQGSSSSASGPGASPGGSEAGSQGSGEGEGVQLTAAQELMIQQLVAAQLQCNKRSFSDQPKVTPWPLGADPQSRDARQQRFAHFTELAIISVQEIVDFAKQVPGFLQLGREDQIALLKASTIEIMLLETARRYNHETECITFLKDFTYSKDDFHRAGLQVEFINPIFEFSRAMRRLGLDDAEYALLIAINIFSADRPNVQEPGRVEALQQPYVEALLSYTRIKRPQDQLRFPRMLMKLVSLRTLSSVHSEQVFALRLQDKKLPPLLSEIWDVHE

[12] = target: Sphingosine 1-phosphate receptor 2 (Homo sapiens, UniProt O95136); experiment: Dose Response Cell Based Assay for Agonists of the S1P2 Receptor. [Related pubchem assays: 729, 736, 843 ]; assay type: functional
Sequence of Sphingosine 1-phosphate receptor 2 (O95136 whole entry): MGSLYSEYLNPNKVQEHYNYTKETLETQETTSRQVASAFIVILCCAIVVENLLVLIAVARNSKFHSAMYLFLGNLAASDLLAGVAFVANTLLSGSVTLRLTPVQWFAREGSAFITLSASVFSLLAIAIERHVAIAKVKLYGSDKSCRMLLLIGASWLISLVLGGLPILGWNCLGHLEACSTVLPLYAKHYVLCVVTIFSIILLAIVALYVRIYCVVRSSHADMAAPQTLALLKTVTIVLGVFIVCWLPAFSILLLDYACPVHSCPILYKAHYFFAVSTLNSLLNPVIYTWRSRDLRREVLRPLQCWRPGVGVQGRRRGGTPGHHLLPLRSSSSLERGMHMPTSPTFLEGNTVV

[13] = NIH-3T3 fibroblast cytotoxicity, dose response, cytotoxicity control, cell-based, fluorescence, Alamar Blue, secondary assay (AID 2327); assay type: functional;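 also: NIH-3T3 mouse fibroblasts cultured with fluconazole at 8 µg/mL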
[14] = fluconazole-exposed Candida albicans growth modulators – fluorescence, retest, confirmation (AID 2467); assay type: functional, cell-based
[15] = reduced cellular PGC1a acetyl-lysine signal – cell-based, cherry-picked samples, dose response (AID 720514); assay type: functional;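 also: potency may reflect raised or lowered acetylation signal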
[16] = microbe, parasite or virus in culture; assay type: functional; conditions: Mycobacterium tuberculosis
Ephrin type-A receptor 4 = Ephrin type-A receptor 4 (Mus musculus, UniProt Q03137); experiment: EphA4 ligand-binding antagonists – biochemical, colorimetric, mouse EphA4, primary screen (AID 689); assay type: functional
Cytochrome P450 2C9 = Cytochrome P450 2C9 (Homo sapiens, UniProt P11712)
cells [17] = assay type: functional
Cytochrome P450 2D6 = Cytochrome P450 2D6 (Homo sapiens, UniProt P10635);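 also: CYP2D6 member of a cytochrome P450 panel assay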
Sequence of Cytochrome P450 2D6 (P10635 whole entry): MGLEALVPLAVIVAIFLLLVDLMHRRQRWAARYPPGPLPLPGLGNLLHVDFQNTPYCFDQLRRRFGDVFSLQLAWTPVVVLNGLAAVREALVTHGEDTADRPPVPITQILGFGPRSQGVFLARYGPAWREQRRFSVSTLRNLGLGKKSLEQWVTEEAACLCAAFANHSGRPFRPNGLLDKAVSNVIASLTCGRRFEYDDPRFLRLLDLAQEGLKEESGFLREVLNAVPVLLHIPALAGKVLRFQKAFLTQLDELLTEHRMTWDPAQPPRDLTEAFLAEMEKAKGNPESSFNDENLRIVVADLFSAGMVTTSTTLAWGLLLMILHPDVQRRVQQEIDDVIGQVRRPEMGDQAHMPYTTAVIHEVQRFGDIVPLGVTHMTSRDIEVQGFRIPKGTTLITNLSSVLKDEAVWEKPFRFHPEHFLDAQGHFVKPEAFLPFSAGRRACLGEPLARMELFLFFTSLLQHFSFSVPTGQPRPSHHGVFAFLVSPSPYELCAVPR

[18] = THP-1 cell cytotoxicity, dose response, cytotoxicity control for non-replicating M. tuberculosis project (AID 489025); assay type: functional
Estrogen receptor beta [19] = target: T2, Estrogen receptor beta (Homo sapiens, UniProt Q92731); experiment: blockers of SRC-3 recruitment to ERβ – biochemical, ELISA, streptavidin-HRP readout, orthogonal assay, confirmation (AID 1060)
T2 sequence (Q92731 whole entry): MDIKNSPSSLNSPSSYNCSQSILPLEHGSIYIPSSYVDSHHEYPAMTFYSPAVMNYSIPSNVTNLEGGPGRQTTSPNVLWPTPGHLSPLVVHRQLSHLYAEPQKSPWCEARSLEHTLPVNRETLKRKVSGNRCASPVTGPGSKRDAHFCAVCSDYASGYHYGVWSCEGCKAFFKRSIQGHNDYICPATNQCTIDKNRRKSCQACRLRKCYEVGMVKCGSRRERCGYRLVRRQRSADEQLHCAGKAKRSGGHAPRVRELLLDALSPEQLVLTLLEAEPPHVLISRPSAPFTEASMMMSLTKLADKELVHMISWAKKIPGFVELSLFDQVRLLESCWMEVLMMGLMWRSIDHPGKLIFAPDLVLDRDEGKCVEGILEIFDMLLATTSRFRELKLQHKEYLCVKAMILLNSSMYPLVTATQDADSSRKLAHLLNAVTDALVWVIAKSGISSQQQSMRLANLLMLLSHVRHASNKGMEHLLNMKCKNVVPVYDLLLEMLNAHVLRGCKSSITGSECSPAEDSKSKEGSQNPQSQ

[20] = target: T3, Low molecular weight phosphotyrosine protein phosphatase (Homo sapiens, UniProt P24666); assay type: functional; conditions: read-out: IC50_Mean;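 also: Dose-response confirmation assay measuring inhibition of LMPTP enzyme activity by fluorescence intensity read-out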
T3 sequence (P24666 whole entry): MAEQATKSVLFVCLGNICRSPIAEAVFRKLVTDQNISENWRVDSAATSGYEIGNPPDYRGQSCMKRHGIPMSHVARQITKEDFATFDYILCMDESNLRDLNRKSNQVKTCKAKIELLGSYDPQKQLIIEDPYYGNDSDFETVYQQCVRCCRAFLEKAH

Estrogen receptor beta [21] = target: T2, Estrogen receptor beta
[22] = target: T4, Tyrosine-protein phosphatase non-receptor type 7 (Homo sapiens, UniProt P35236); experiment: HePTP tyrosine phosphatase activity blockers – biochemical, absorbance, leukemia target, primary screen (AID 521); assay type: functional
T4 sequence (P35236 whole entry): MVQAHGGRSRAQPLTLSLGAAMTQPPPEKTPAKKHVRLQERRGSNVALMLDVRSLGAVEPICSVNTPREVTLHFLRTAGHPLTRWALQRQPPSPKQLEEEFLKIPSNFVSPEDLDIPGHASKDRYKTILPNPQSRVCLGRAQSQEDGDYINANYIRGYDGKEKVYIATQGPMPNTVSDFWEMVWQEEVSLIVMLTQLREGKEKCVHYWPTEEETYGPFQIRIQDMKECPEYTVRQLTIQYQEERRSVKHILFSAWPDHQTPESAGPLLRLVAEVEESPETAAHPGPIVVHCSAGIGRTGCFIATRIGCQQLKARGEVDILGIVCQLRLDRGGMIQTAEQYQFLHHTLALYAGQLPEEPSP

[23] = NIH3T3 cell viability loss – ATP luminescence, mouse fibroblasts, counter-screen, dose response (AID 2010); assay type: functional, cell-based;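 also: cells exposed to compound for about 90 hours before reading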
[24] = Trypanosoma cruzi growth suppression in host cells – NIH3T3 host cells, beta-gal luminescence, confirmation (AID 2044); assay type: functional, cell-based;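 also: intracellular parasites grown in NIH/3T3 mouse fibroblasts as host cells; luminescent beta-galactosidase reporter signal from transgenic T. cruzi replicating inside host cells; inhibitors lower the luminescence signal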

SMILES: COc1ccc(OC)c(NC(=O)C2CCN(Cc3cnn(-c4ccccc4)c3-n3cccc3)CC2)c1
- IC50 [1]: > 83.3 µM (inactive)
- IC50 [2]: > 109 µM (inactive)
- EC50 [3]: 2.48 µM (active)

SMILES: Cc1cccnc1NC(=S)NC(=O)c1cccs1
- EC50 [4]: 0.19 µM (active)
- EC50 [5]: < 0.1 µM (active)
- EC50 (H4): 14.9 µM (active)
- IC50 [6]: > 66 µM (inactive)
- EC50 [7]: 0.161 µM (active)
- IC50 [8]: > 66 µM (inactive)
- EC50 [9]: 0.464 µM (active)
- EC50 (cells [10]): > 67.5 µM (inactive)
- EC50 [11]: > 67.5 µM (inactive)

SMILES: c1ccc(-c2nc3ccccn3c2NCc2ccc3c(c2)OCO3)cc1
- EC50 [12]: > 50 µM (not active)

SMILES: Sc1ncnc2c1cnn2Cc1ccccc1
- EC50 [13]: > 150 µM (inactive)
- EC50 [14]: 3.56 µM (active)
- AC50 [15]: 11.2 µM (active)

SMILES: CCCCCCOC(=O)C(C#N)c1nc2ccccc2nc1N1CCN(CC)CC1 (stereo not given)
- CC50 [16]: 19.7 µM (active)
- IC50 (Ephrin type-A receptor 4): > 100 µM (not active)
- AC50 (Cytochrome P450 2C9): 7.94 µM (inconclusive)
- IC50 (cells [17]): 13.6 µM (active)
- AC50 (Cytochrome P450 2D6): 25.1 µM (inconclusive)
- CC50 [18]: 24.7 µM (active)

SMILES: CCc1nc2sc3ccccc3c(=O)c2c(=O)n1Cc1ccco1
- IC50 (Estrogen receptor beta [19]): 12.6 µM (not active)
- IC50 [20]: 52.2 µM (inactive)
- IC50 (Estrogen receptor beta [21]): 6.59 µM (active)
- IC50 [22]: 15.1 µM (active)

SMILES: CC(C)C(Nc1ncnc2c1oc1ccccc12)C(=O)O (stereo not given)
- IC50 [1]: > 83.3 µM (inactive)
- IC50 [2]: > 109 µM (inactive)
- EC50 [23]: 10.8 µM (active)
- EC50 [24]: 12.6 µM (active)
